Test results as given in patent US9359344B2, “Biaryl heterocycle substituted oxazolidinone antibacterial agents” (Xuanzhu Pharma Co., Ltd., priority 2011, dated 2016).

Key:
[1] = system: streptococcus pneumoniae; assay: In vitro antibacterial activity, standard agar dilution method, Streptococcus pneumoniae; type: cell-based; settings: clinical strains
Text: (§1) Strains for test: methicillin-resistant Staphylococcus aureus (MRSA), methicillin-sensitive Staphylococcus aureus (MSSA), methicillin-resistant Staphylococcus epidermidis (MRSE), methicillin-sensitive Staphylococcus […] (MSSE), Enterococcus faecium, Enterococcus faecalis, streptococcus pneumoniae. Obtained from: Qianfoshan Hospital, First People's Hospital of Yunnan Province, Renji Hospital of Shanghai, People's Hospital of Jilin Province, Southwest Hospital.
(§2) Compounds 1, 3, 4, 6, 8, 11 of the present invention, prepared according to the process in each of the examples.
(§3) Control pharmaceutical: linezolid.
(§4) standard agar dilution method, reference was made to National Committee for Clinical Laboratory Standards. 2006. Methods for Dilution Antimicrobial Susceptibility Tests for Bacteria That Grow Aerobically, Approved Standard—Seventh Edition M7-A7.

[2] = system: methicillin-sensitive Staphylococcus aureus (MSSE); assay: In vitro antibacterial activity, standard agar dilution method, MSSE; type: cell-based, Staphylococcus epidermidis; settings: clinical strains
Text: as §1, §2, §3, §4

[3] = system: Enterococcus faecalis; assay: In vitro antibacterial activity, standard agar dilution method, Enterococcus faecalis; type: cell-based; settings: clinical strains
Text: as §1, §2, §3, §4

[4] = system: methicillin-resistant Staphylococcus epidermidis (MRSE); assay: In vitro antibacterial activity, standard agar dilution method, MRSE; type: cell-based; settings: clinical strains
Text: as §1, §2, §3, §4

[5] = system: methicillin-sensitive Staphylococcus aureus (MSSA); assay: In vitro antibacterial activity, standard agar dilution method, MSSA; type: cell-based; settings: clinical strains
Text: as §1, §2, §3, §4

[6] = system: methicillin-resistant Staphylococcus aureus (MRSA); assay: In vitro antibacterial activity, standard agar dilution method, MRSA; type: cell-based; settings: clinical strains
Text: as §1, §2, §3, §4

[7] = system: Enterococcus faecium; assay: In vitro antibacterial activity, standard agar dilution method, Enterococcus faecium; type: cell-based; settings: clinical strains
Text: as §1, §2, §3, §4

[8] = system: methicillin-sensitive (MSSE); assay: In vitro antibacterial activity, standard agar dilution method, MSSE; type: cell-based, Staphylococcus epidermidis; settings: clinical strains
Text: as §1, §2, §3, §4

[9] = In vivo pharmacokinetics test on rat, P.O (lavage); settings: plasma, po, male SD rat, Compound 3 itself detected
Procedure: (§5) Compounds 2, 3, 5, 7, 9, prepared by the processes in the examples, dissolved in physiological saline.
(§6) Administration is performed as described in the table below, fasting without water deprivation for 16 hours before administration, providing food 4 hours after the administration.
P.O representing administration by lavage
(§7) I.V: blood collection was carried out according to the time points in the table below. At each time point about 100 μl whole blood was collected into a heparin sodium anticoagulation tube, centrifuged at 4° C. in a low temperature high speed centrifuge at 8000 rpm for 6 minutes. Plasma was separated and stored frozen in a freezer at −80° C.
(§8) Compound 5, 7, 9: 20 μl plasma was each taken and added into 100 μl of Torezolid (TR-700) solution in methanol at a concentration of 50 ng/ml, mixed under vortex for 5 minutes, centrifuged at 12000 rpm for 5 minutes; 100 μl of supernatant was taken and added into 100 μl water, mixed under vortex for 2 minutes, and analyzed by using LC-MS/MS.
(§9) Compound 2: 20 μl plasma was taken and added into 100 μl of Radezolid solution in methanol at a concentration of 50 ng/ml, mixed under vortex for 3 minutes, centrifuged at 12000 rpm for 5 minutes; 100 μl of supernatant was taken and added into 100 μl water, mixed under vortex for 2 minutes, and analyzed by using LC-MS/MS.
(§10) Compound 3: 20 μl plasma was taken and added into 800 μl of KBP-3957 methyl tert-butyl ether solution at a concentration of 10 ng/ml, mixed under vortex for 10 minutes, centrifuged at 12000 rpm for 5 minutes; 400 μl of supernatant was taken and added into a 96-well plate, purged to dryness by nitrogen, 200 μl of methanol:water (7:3) solution was added, mixed under vortex for 10 minutes, and analyzed by using LC-MS/MS.
(§11) Compound 2 is the prodrug of compound 1. Compound 5 is the prodrug of compound 4. Compound 7 is the prodrug of compound 6. Compound 9 is the prodrug of compound 8. Thus, PK data of active compounds, i.e. compounds 1, 4, 6, 8, were detected after administration, respectively.
Calculation Formula Absolute bioavailability F %=[AUC]INF(PO)*Dose(IV)/[AUC]INF(IV)*Dose(PO)

[10] = In vivo pharmacokinetics test on rat, I.V (intravenous push); settings: male SD rat, 0.75 mg/kg, plasma, Compound 3 itself detected
Procedure: as §5, §6
I.V representing administration by intravenous push
as §7, §8, §9, §10, §11

Compound | antibacterial activity Streptococcus pneumoniae [1] | antibacterial activity MSSE [2] | antibacterial activity Enterococcus faecalis [3] | antibacterial activity MRSE [4] | antibacterial activity MSSA [5] | antibacterial activity MRSA [6] | antibacterial activity Enterococcus faecium [7] | antibacterial activity MSSE [8] | bioavailability ([9]; P.O 1 mg/kg vs I.V 0.75 mg/kg, read-out: F % (absolute bioavailability)) | AUC(0-inf) ([9]; P.O, 1 mg/kg) | Cmax ([9]; P.O, 1 mg/kg) | Tmax ([9]; P.O, 1 mg/kg) | half-life ([9]; P.O, 1 mg/kg) | AUC(0-inf) [10] | clearance [10] | half-life [10] | Vd ([10]; read-out: Vss)
Cn1nnc(Nc2ccc(-c3ccc(N4C[C@H](CO)OC4=O)cc3F)cn2)n1 [Compound 1, (R)-3-(3-fluoro-4-(6-((2-methyl-2H-tetrazol-5-yl)amino)pyridin-3-yl)phenyl)-5-(hydroxylmethyl)oxazolidin-2-one] | 0.5 µg/mL | 0.5 µg/mL | 1 µg/mL | 0.5 µg/mL | 1 µg/mL | 1 µg/mL | 1 µg/mL |  |  |  |  |  |  |  |  |  | 
CC(=O)NC[C@H]1CN(c2ccc(-c3ccc(Nc4nnn(C)n4)nc3)c(F)c2)C(=O)O1 [Compound 3, (S)-N-((3-(3-fluoro-4-(6-((2-methyl-2H-tetrazol-5-yl)amino)pyridin-3-yl)phenyl)-2-oxooxazolidin-5-yl)methyl)acetamide] | 0.25 µg/mL |  | 0.25 µg/mL | 0.25 µg/mL | 0.5 µg/mL | 1 µg/mL | 0.25 µg/mL | 0.25 µg/mL | 45.5% | 7030 ng·h/mL | 614 ng/mL | 4 h | 5.55 h | 11600 ng·h/mL | 1.17 mL/min/kg | 5.29 h | 0.37 L/kg
Cn1nnnc1Nc1ccc(-c2ccc(N3C[C@H](CO)OC3=O)cc2F)cn1 [Compound 4, (R)-3-(3-fluoro-4-(6-((1-methyl-1H-tetrazol-5-yl)amino)pyridin-3-yl)phenyl)-5-(hydroxylmethyl)oxazolidin-2-one] | 1 µg/mL | 0.125 µg/mL | 0.25 µg/mL | 0.125 µg/mL | 0.25 µg/mL | 0.25 µg/mL | 0.25 µg/mL |  |  |  |  |  |  |  |  |  | 
CN(c1ccc(-c2ccc(N3C[C@H](CO)OC3=O)cc2F)cn1)c1nnnn1C [Compound 6, (R)-3-(3-fluoro-4-(6-(methyl(1-methyl-1H-tetrazol-5-yl)amino)pyridin-3-yl)phenyl)-5-(hydroxylmethyl)oxazolidin-2-one] | 0.5 µg/mL | 0.5 µg/mL | 1 µg/mL | 0.5 µg/mL | 0.5 µg/mL | 0.5 µg/mL | 1 µg/mL |  |  |  |  |  |  |  |  |  | 
CN(c1ccc(-c2ccc(N3C[C@H](CO)OC3=O)cc2F)cn1)c1nnn(C)n1 [Compound 8, (R)-3-(3-fluoro-4-(6-(methyl(2-methyl-2H-tetrazol-5-yl)amino)pyridin-3-yl)phenyl)-5-(hydroxylmethyl)oxazolidin-2-one] | 0.5 µg/mL | 0.5 µg/mL | 1 µg/mL | 0.5 µg/mL | 1 µg/mL | 1 µg/mL | 1 µg/mL |  |  |  |  |  |  |  |  |  | 
Cn1cc(Nc2ccc(-c3ccc(N4C[C@H](CO)OC4=O)cc3F)cn2)nn1 [Compound 11, (R)-3-(3-fluoro-4-(6-((1-methyl-1H-1,2,3-triazol-4-yl)amino)pyridin-3-yl)phenyl)-5-(hydroxylmethyl)oxazolidin-2-one] | 1 µg/mL | 0.5 µg/mL | 2 µg/mL | 1 µg/mL | 1 µg/mL | 1 µg/mL | 2 µg/mL |  |  |  |  |  |  |  |  |  | 
CC(=O)NC[C@H]1CN(c2ccc(N3CCOCC3)c(F)c2)C(=O)O1 [linezolid, Linezolid, reference compound] | 2 µg/mL | 2 µg/mL | 4 µg/mL | 2 µg/mL | 2 µg/mL | 4 µg/mL | 4 µg/mL |  |  |  |  |  |  |  |  |  | 
